Results: US20050143392A1, “Chrysogenazine obtained from fungus Penicillium chrysogenum having antibacterial activity” (Council of Scientific & Industrial Research, priority 2003, published 2005)

System: Vibrio cholerae MCM B-322
Assay: Antibacterial activity, simple disc diffusion (agar diffusion) technique
Method: In addition, standard discs of penicillin (10 units/disc), amphicillin (10 mcg/disc) and streptomycin (10 mcg/disc) were used to compare the sensitivity.
Antibacterial activity was determined using a Gram negative bacterial strain, Vibrio cholerae, in a agar diffusion assay, essentially as described by Chabbert, (1963) and Rinehart et.al.,(1981). […] Following an appropriate incubation interval, microbial growth inhibition was visualized and quantified by measuring the clear zone around each disc (Plate 1.). Comparison of this was made with the standard antibiotics (penicillin, amphicillin, and streptomycin).

SMILES | antibacterial activity against human pathogen Vibrio cholerae (in words) (disc diffusion, 5-30 mcg/disc) | zone of inhibition at 10 µg/disc (Vibrio cholerae, MCMB322) [mm]
CC(C)=CCc1[nH]c2ccccc2c1C=C1NC(=O)C(C)NC1=O (centres unmarked) [chrysogenazine, 3,1′-didehydro-3[2″(3′″,3′″-dimethyl-prop-2-enyl)-3″-indolylmethylene]-6-methylpiperazine-2,5-dione] | active | –
[H]/N=C(/N)N[C@H]1[C@H](O)[C@@H](O)[C@H](O[C@@H]2O[C@@H](C)[C@](O)(C=O)[C@H]2O[C@@H]2O[C@@H](CO)[C@H](O)[C@@H](O)[C@@H]2NC)[C@@H](N/C(N)=N\[H])[C@@H]1O [streptomycin] | – | 4 to 5
